Key:
Hep3B [1] = assay: Immunofluorescence, p21Waf1/Cip1; assay type: cell-based; settings: 15 μM, 12 h; vs untreated
Hep3B [2] = assay: Immunofluorescence, caspase-12 (endoplasmic reticulum stress); assay type: cell-based; settings: 15 μM, 12 h
Hep3B [3] = assay: Cell cycle analysis by flow cytometer (propidium iodide); assay type: cell-based; settings: for sub-G1 cell population: 24 h (untreated 1.35%)
Hep3B [4] = assay: Cell viability assay (WST-1), Hep3B; assay type: cell-based; settings: 24 h
Hep3B [5] = assay: Western blot of LC3B; assay type: cell-based; settings: 15, 20, 25 μM, 12 h; vs untreated
Hep3B [6] = assay: Immunofluorescence, cleaved caspase-8 and -3; assay type: cell-based; settings: 15 μM, 12 h; vs untreated
Hep3B [7] = assay: Western blot of Bcl-2 family and apoptotic proteins; assay type: cell-based; settings: 15, 20, 25 μM, 24 h
Hep3B [8] = assay: Wound-healing assay (cell migration); assay type: cell-based
Hep3B [9] = assay: DAPI assay, nuclear condensation / apoptosis induction; assay type: cell-based; settings: 20, 25 μM
Sk-Hep1 = assay: Cell viability assay (WST-1), Sk-Hep1; assay type: cell-based
THLE-3 = assay: Cell viability assay (WST-1), THLE-3; assay type: cell-based; settings: THLE-3, 5-30 μM, 24 h
[10] = Cell viability assay (WST-1), THLE-3; assay type: cell-based; settings: human, thle-3 cells, THLE-3, 30 μM, read-out: survival rate of the cells
Hep3B [11] = assay: Western blot of endoplasmic reticulum chaperone proteins; assay type: cell-based; settings: 20 μM, depending on time
HUVECs = assay: Tube formation assay (angiogenesis, in vitro); assay type: cell-based, human; settings: for degree of tube formation (total tube length, converted to percent): 18 h (untreated 222)
Hep3B [12] = assay: Western blot of cell cycle-related proteins; assay type: cell-based; settings: 15, 20, 25 μM, 24 h
[13] = tested on: Hep3B cells transformed with GFP-LC3B plasmid; assay: Autophagosome formation in GFP-LC3B transformed cells, fluorescence microscopy; assay type: cell-based; settings: 20 μM, over time (6, 12, 18, 24)

**Q.** For `COc1ccc(C[C@@H]2c3cc(Oc4cc(C[C@@H]5c6cc(OC)c(OC)cc6CCN5C)ccc4O)c(OC)cc3CCN2C)cc1` [neferine, 4-[[(1R)-6,7-Dimethoxy-2-methyl-3,4-dihydro-1H-isoquinolin-1-yl]methyl]-2-[[(1R)-6-methoxy-1-[(4-methoxyphenyl)methyl]-2-methyl-3,4-dihydro-1H-isoquinolin-7-yl]oxy]phenol], which “expression level of p21 Waf1/Cip1 protein around the nucleus in the cytoplasm” value (Hep3B [1]) is on record?
**A.** The value was “두드러지게 증대”.

**Q.** And the “expansion of the endoplasmic reticulum (caspase-12 staining)” value (Hep3B [2])?
**A.** The value was “소포체의 확장을 관찰”.

**Q.** And the sub-G1 cell population (Hep3B [3]; 15 μM)?
**A.** Its sub-G1 cell population is 4.78%.

**Q.** What about the “increase of G1/S phase compared to untreated group” value (Hep3B [3]; 20 μM, 24 h) of the same compound?
**A.** Its value is “approximately 9%”.

**Q.** What about the sub-G1 cell population (Hep3B [3]; 20 μM) of the same compound?
**A.** Its sub-G1 cell population is 16.01%.

**Q.** What about the “sub-G1 cell population (concentration dependence)” value (Hep3B [3]; 15, 20, 25 μM, 24 h) of the same compound?
**A.** The value was “sub-G1 cell population increases in proportion to the neferrin treatment concentration”.

**Q.** What about the cell suppression (Hep3B [4]; 10 μM or more) of the same compound?
**A.** Its cell suppression is “marked cell suppression”.

**Q.** And the “cell viability (concentration dependence)” value (Hep3B [4]; 5-30 μM)?
**A.** The value was “significant decrease in cell viability depending on the neferrin treatment concentration”.

**Q.** And the viability at 30 µM (Hep3B [4]; Homo sapiens, read-out: cell viability)?
**A.** Its viability at 30 µM is < 10%.

**Q.** What about the “expression of LC3B around the membrane” value (Hep3B [5]) of the same compound?
**A.** Its value is “농도 의존적으로 증가”.

**Q.** And the “cleaved caspase-3 expression” value (Hep3B [6])?
**A.** Its value is “markedly expressed”.

**Q.** And the “cleaved caspase-8 expression” value (Hep3B [6])?
**A.** Its value is “markedly expressed”.

**Q.** What about the Bak protein expression (Hep3B [7]) of the same compound?
**A.** The Bak protein expression was “significantly increased”.

**Q.** And the Bax protein expression (Hep3B [7])?
**A.** The Bax protein expression was “slightly increased”.

**Q.** What about the Bid protein expression (Hep3B [7]) of the same compound?
**A.** Its Bid protein expression is “slightly increased”.

**Q.** What about the Bim protein expression (Hep3B [7]) of the same compound?
**A.** The Bim protein expression was “slightly increased”.

**Q.** What about the Puma protein expression (Hep3B [7]) of the same compound?
**A.** The Puma protein expression was “significantly increased”.

**Q.** What about the caspase-3 protein expression (Hep3B [7]) of the same compound?
**A.** The caspase-3 protein expression was “decrease depending on the treatment concentration”.

**Q.** And the “cleaved PARP protein expression” value (Hep3B [7])?
**A.** The value was “markedly increased”.

**Q.** And the “cleaved caspase-6 protein expression” value (Hep3B [7])?
**A.** Its value is “markedly increased”.

**Q.** And the inhibition at 15 µM (Hep3B [8]; Homo sapiens, Hep3B, 15 μM, 72 h, vs increased migration in untreated group, read-out: reduction of cell coverage area)?
**A.** The inhibition at 15 µM was ~20%.

**Q.** What about the cell migration (Hep3B [8]; images at 12 h intervals) of the same compound?
**A.** The cell migration was “cell migration was suppressed depending on the neferrin treatment concentration”.

**Q.** And the “nuclear membrane changes (shrinkage, blebbing)” value (Hep3B [9]; 6 h after treatment, vs untreated)?
**A.** Its value is “세포들의 응축(shrinkage) 및 파열(blebbing)과 같은 핵 막 변화가 나타나는”.

**Q.** And the “nuclear condensation (apoptosome formation)” value (Hep3B [9]; 24 h after treatment)?
**A.** The value was “핵 응축(apoptosome formation)이 관찰되었다”.

**Q.** What about the viability at 30 µM (Sk-Hep1; Homo sapiens, SK-HEP1, 24 h, read-out: survival rate of the cells) of the same compound?
**A.** Its viability at 30 µM is ~90%.

**Q.** What about the cytotoxicity (Sk-Hep1; Sk-Hep1, 5-30 μM, 24 h) of the same compound?
**A.** The cytotoxicity was “did not show cytotoxicity”.

**Q.** What about the cytotoxicity (THLE-3) of the same compound?
**A.** Its cytotoxicity is “did not show cytotoxicity”.

**Q.** And the viability at 24 h, 30 µM [10]?
**A.** The viability at 24 h, 30 µM was ~90%.

**Q.** And the “Bip protein expression level” value (Hep3B [11])?
**A.** Its value is “significantly up-regulate”.

**Q.** What about the “PDI protein expression level” value (Hep3B [11]) of the same compound?
**A.** The value was “significantly up-regulate”.

**Q.** And the “calnexin protein expression level” value (Hep3B [11])?
**A.** Its value is “significantly up-regulate”.

**Q.** What about the “calpain2 protein expression level” value (Hep3B [11]) of the same compound?
**A.** The value was “significantly up-regulate”.

**Q.** What about the “caspase-12 protein expression level” value (Hep3B [11]) of the same compound?
**A.** The value was “significantly up-regulate”.

**Q.** What about the “degree of tube formation (total tube length, converted to percent)” value (HUVECs; 10 μM) of the same compound?
**A.** Its value is 216%.

**Q.** And the “degree of tube formation (total tube length, converted to percent)” value (HUVECs; 20 μM)?
**A.** Its value is 202%.

**Q.** And the “degree of tube formation (total tube length, converted to percent)” value (HUVECs; 30 μM)?
**A.** Its value is 146%.

**Q.** And the “formation of cellular vascular structures” value (HUVECs; 10, 20, 30 μM, 18 h)?
**A.** The value was “suppression of the formation of cellular vascular structures”.

**Q.** And the “tube length (px), concentration dependence” value (HUVECs; 10, 20, 30 μM, 18 h)?
**A.** Its value is “tube length (px) is reduced depending on the neferrin concentration”.

**Q.** And the CDK4 protein expression (Hep3B [12])?
**A.** The CDK4 protein expression was “down regulation”.

**Q.** What about the E2F-1 protein expression (Hep3B [12]) of the same compound?
**A.** Its E2F-1 protein expression is “down regulation”.

**Q.** What about the c-Myc protein expression (Hep3B [12]) of the same compound?
**A.** The c-Myc protein expression was “down regulation”.

**Q.** What about the “cyclin D1 protein expression” value (Hep3B [12]) of the same compound?
**A.** The value was “down regulation”.

**Q.** What about the “cyclin D3 protein expression” value (Hep3B [12]) of the same compound?
**A.** Its value is “down regulation”.

**Q.** What about the “p21 Waf1/Cip1 protein expression” value (Hep3B [12]) of the same compound?
**A.** The value was “expression was increased”.

**Q.** What about the “phosphorylation of cdc2” value (Hep3B [12]) of the same compound?
**A.** The value was “dephosphorylation of cdc2”.

**Q.** What about the “number of autophagosomes in the cytoplasm (GFP-LC3B dots)” value [13] of the same compound?
**A.** Its value is “자가포식소체 수가 세포질 내에서 증가”.

**Q.** What about the “size and number of vacuoles” value [13] of the same compound?
**A.** The value was “시간 의존적으로 더 크고 많이 증가”.

**Q.** And the “vacuole formation in the cytoplasm” value [13]?
**A.** Its value is “소체(vacuole) 형성이 발생”.

Source: patent WO2014051359A1, “Pharmaceutical composition comprising neferine as active ingredient for preventing or treating hepatoma” (Pukyong National University, priority 2012, dated 2014)
